From patent US8877707B2, “Inhibitors of HCV NS5A” (Presidio Pharmaceuticals, Inc., priority 2010, dated 2014) come the findings set out here.

The subject of this test is HCV genotype 1b replicon in Huh 7 cells. Put plainly: HCV replicon assay (1b_Huh-Luc/Neo-ET cell line, luciferase readout). It is filed as cell-based. As to conditions: Hepatitis C virus, Huh-7; HCV 1b replicon; read-out: Inhibition of HCV genotype 1b. The procedure, abridged: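 Huh 7 cells carrying a bicistronic genotype 1b luciferase replicon were treated with compound in triplicate the day after plating and incubated 72 h. Luciferase activity expressed as % of untreated control; EC50 from a four-parameter logistic fit, repeated several times.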
Background: In antiviral work, replicon cells carry a viral genome segment that copies itself.

Each structure is given as a SMILES string.

Take `COC(=O)N[C@H](C(=O)N1CCC[C@H]1C(=O)NCc1ccc(-c2ccc3cc(-c4cnc([C@@H]5CCCN5C(=O)[C@@H](NC(=O)OC)C(C)C)[nH]4)ccc3c2)cc1)C(C)C` [compound 567]: the EC50 lay within 10 to 999 nM. `COC(=O)N[C@H](C(=O)N1CCC[C@H]1C(=O)NCc1ccc(-c2ccc3cc(-c4cnc([C@@H]5CCCN5C(=O)[C@@H](NC(=O)OC)[C@@H](C)OC)[nH]4)ccc3c2)cc1)[C@@H](C)OC` [compound 568]: the EC50 was 10 to 999 nM. To `COC(=O)N[C@H](C(=O)N1CCC[C@H]1C(=O)NCc1ccc(-c2ccc3cc(-c4cnc([C@@H]5CCCN5C(=O)[C@@H](NC(=O)OC)C5CCOCC5)[nH]4)ccc3c2)cc1)C1CCOCC1` [compound 569] belongs less than 1 nM; to `COC(=O)N[C@@H](C)C(=O)N1CCC[C@H]1C(=O)Nc1ccc(-c2ccc3cc(-c4cnc([C@@H]5CCCN5C(=O)[C@H](C)NC(=O)OC)[nH]4)ccc3c2)cc1` [compound 570], 1 to 9.9 nM; to `COC(=O)N[C@H](C(=O)N1CCC[C@H]1C(=O)Nc1ccc(-c2ccc3cc(-c4cnc([C@@H]5CCCN5C(=O)[C@@H](NC(=O)OC)C(C)C)[nH]4)ccc3c2)cc1)C(C)C` [compound 571], less than 1 nM. With `COC(=O)N[C@H](C(=O)N1CCC[C@H]1CNC(=O)c1ccc(-c2ccc3cc(-c4cnc([C@@H]5CCCN5C(=O)[C@@H](NC(=O)OC)[C@@H](C)OC)[nH]4)ccc3c2)cc1)[C@@H](C)OC` [compound 572], the EC50 is less than 1 nM. To `COC(=O)N[C@H](C(=O)N1CCC[C@H]1CNC(=O)c1ccc(-c2ccc3cc(-c4cnc([C@@H]5CCCN5C(=O)[C@@H](NC(=O)OC)C5CCOCC5)[nH]4)ccc3c2)cc1)C1CCOCC1` [compound 573] belongs less than 1 nM; to `COC(=O)N[C@H](C(=O)N1CCC[C@H]1CNC(=O)c1ccc2cc(-c3ccc(-c4cnc([C@@H]5CCCN5C(=O)[C@@H](NC(=O)OC)C(C)C)[nH]4)cc3)ccc2c1)C(C)C` [compound 574], less than 1 nM.

`COC(=O)N[C@H](C(=O)N1CCC[C@H]1CNC(=O)c1ccc2cc(-c3ccc(-c4cnc([C@@H]5CCCN5C(=O)[C@@H](NC(=O)OC)[C@@H](C)OC)[nH]4)cc3)ccc2c1)[C@@H](C)OC` [compound 575]: the EC50 was less than 1 nM. In the case of `COC(=O)N[C@@H](C(=O)N1CCC[C@H]1CNC(=O)c1ccc2cc(-c3ccc(-c4cnc([C@@H]5CCCN5C(=O)[C@H](NC(=O)OC)c5ccccc5)[nH]4)cc3)ccc2c1)c1ccccc1` [compound 577] it was less than 1 nM. To `COC(=O)N[C@H](C(=O)N1CCC[C@H]1C(=O)Nc1ccc(-c2ccc3cc(-c4cnc([C@@H]5CCCN5C(=O)[C@@H](NC(=O)OC)[C@@H](C)OC)[nH]4)ccc3c2)cc1)[C@@H](C)OC` [compound 578] belongs less than 1 nM; to `COC(=O)N[C@H](C(=O)N1CCC[C@H]1c1ncc(-c2ccc3cc(-c4cc5[nH]c([C@@H]6CCCN6C(=O)[C@@H](NC(=O)OC)C(C)C)nc5cc4F)ccc3c2)[nH]1)C(C)C` [compound 700], less than 1 nM.

Take `COC(=O)N[C@H](C(=O)N1CCC[C@H]1c1ncc(-c2ccc3cc(-c4cc5[nH]c([C@@H]6CCCN6C(=O)[C@@H](NC(=O)OC)[C@@H](C)OC)nc5cc4F)ccc3c2)[nH]1)[C@@H](C)OC` [compound 701]: the EC50 was less than 1 nM. Turning to `COC(=O)N[C@H](C(=O)N1CCC[C@H]1c1ncc(-c2ccc3cc(-c4cc5[nH]c([C@@H]6CCCN6C(=O)[C@@H](NC(=O)OC)C6CCOCC6)nc5cc4F)ccc3c2)[nH]1)C1CCOCC1` [compound 702], the EC50 is less than 1 nM. In the case of `CC[C@H](C)[C@H](NC(=O)OC)C(=O)N1CCC[C@H]1c1ncc(-c2ccc3cc(-c4cc5[nH]c([C@@H]6CCCN6C(=O)[C@@H](NC(=O)OC)[C@@H](C)CC)nc5cc4F)ccc3c2)[nH]1` [compound 703] it was less than 1 nM.
